Key:
Type in all cases: cell-based
HEK293 = experiment: Cell growth inhibition experiment (SRB), HEK293; details: Homo sapiens, incubated for 96 hours, read-out: IC50 (μM) of cancer cell lines HEK293
Method: (§1) The 4-(aryl)-N-(2-alkoxythieno[3,2-b]pyrazin-3-yl)-piperazin-1-carboxamide derivative compounds synthesized according to Examples 1 to 27 of the present invention were treated with various human tissue-derived cancer cell lines cultured according to Experimental Example 1, and thus the inhibitory effect of the growth of human cancer cells was confirmed. The cell growth inhibition experiment was conducted using sulforhodamine B (SRB) technique (Skehan et al., J. National Cancer Institute, 1990, 82: 1107-1112). Specifically, each cell line was seeded in a 96-well plate at a density of 2 to 3×10^3 cells/well, cultured overnight, and then treated with the 4-(aryl)-N-(2-alkoxythieno[3,2-b]pyrazin-3-yl)-piperazin-1-carboxamide derivative compounds of the present invention. The experiment was repeated 3 times for each compound. Cells treated with each compound were additionally incubated for 96 hours, fixed with 10% trichloroacetic acid (TCA), and then left at 4° C. for 1 hour. The resultant was washed 3 times with distilled water. Thereafter, each cell was treated with 0.4% sulforhodamine B dissolved in 1% acetic acid, stained for 30 minutes, and then washed 4 times with 1% acetic acid. The resultant was dried in the air. After shaking the resultant in Tris solution (10 mM) for 5 minutes, the absorbance was measured at 530 nm using a Benchmark Plus Microplate reader (Bio-Rad Laboratories, Hercules, Calif.).
(§2) In order to convert the OD530 value to the number of viable cells per each well, the measured OD530 value was compared to the standard OD530-vs.-cell number curve of each cell line. The percent survival was calculated using the following formula: % survival=Nlive cells(test)/Nlive cells(control)×100
(§3) IC50 values were calculated by nonlinear regression analysis.

SK-OV-3 = experiment: Cell growth inhibition experiment (SRB), SK-OV-3; details: Homo sapiens, incubated for 96 hours, read-out: IC50 (μM) of cancer cell lines SK-OV-3
Method: as §1, §2, §3

HT29 = experiment: Cell growth inhibition experiment (SRB), HT29; details: Homo sapiens, HT-29, incubated for 96 hours, read-out: IC50 (μM) of cancer cell lines HT29
Method: as §1, §2, §3

[1] = tested on: HN31 (head and neck cancer) cell line; experiment: Cell growth inhibition experiment (SRB), HN31; details: Homo sapiens, incubated for 96 hours, read-out: IC50 (μM) of cancer cell lines HN31
Method: (§4) The cell lines below were used in order to confirm the efficacy of the compounds synthesized in Examples 1 to 27. Human PANC-1 (pancreatic cancer) and MDA-MB-231 (breast cancer) cell lines were obtained from American Type Culture Collection (ATCC; Manassas, Va.); and HN31 (head and neck cancer) and UMRC2 (kidney cancer) cell lines were secured from the United States National Institutes of Health (Bethesda, Md.). The MDA-MB-231, UMRC2, HN31, and PANC-1 cell lines were cultured in Dulbecco modified Eagle medium (DMEM) containing FBS (10%), HEPES (10 mM), penicillin (100 U/mL), and streptomycin (100 μg/mL). All cell lines were cultured in an incubator (37° C., 5% CO2).
as §1, §2, §3

[2] = tested on: UMRC2 (kidney cancer) cell line; experiment: Cell growth inhibition experiment (SRB), UMRC2; details: Homo sapiens, incubated for 96 hours, read-out: IC50 (μM) of cancer cell lines UMRC2
Method: as §4, §1, §2, §3

[3] = tested on: MDA-MB-231 (breast cancer) cell line; experiment: Cell growth inhibition experiment (SRB), MDA-MB-231; details: Homo sapiens, incubated for 96 hours, read-out: IC50 (μM) of cancer cell lines MDA-MB-231
Method: as §4, §1, §2, §3

[4] = tested on: PANC-1 (pancreatic cancer) cell line; experiment: Cell growth inhibition experiment (SRB), PANC-1; details: Homo sapiens, incubated for 96 hours, read-out: IC50 (μM) of cancer cell lines PANC-1
Method: as §4, §1, §2, §3

HUVEC = experiment: Cell growth inhibition experiment (SRB), HUVEC; details: Homo sapiens, incubated for 96 hours, read-out: IC50 (μM) of cancer cell lines HUVEC
Method: as §1, §2, §3

A549 = experiment: Cell growth inhibition experiment (SRB), A549; details: Homo sapiens, incubated for 96 hours, read-out: IC50 (μM) of cancer cell lines A549
Method: as §1, §2, §3

Compound | IC50 (HEK293) [µM] | IC50 (SK-OV-3) [µM] | IC50 (HT29) [µM] | IC50 [1] [µM] | IC50 [2] [µM] | IC50 [3] [µM] | IC50 [4] [µM] | IC50 (HUVEC) [µM] | IC50 (A549) [µM]
COc1nc2cc(Cl)sc2nc1NC(=O)N1CCN(c2cc(C)cc(C)c2)CC1 [Example 2, N-(6-chloro-2-methoxythieno[3,2-b]pyrazin-3-yl)-4-(3,5-dimethylphenyl)piperazin-1-carboxamide] | 0.93 | 0.82 | 0.62 | 0.99 | 0.08 | 0.06 | 0.95 | 0.91 | < 2.5
COc1nc2ccsc2nc1NC(=O)N1CCN(c2cc(OC(F)(F)F)cc(C(F)(F)F)c2)CC1 [Example 20, N-(2-methoxythieno[3,2-b]pyrazin-3-yl)-4-(3-(trifluoromethoxy)-5-(trifluoromethyl)phenyl)piperazin-1-carboxamide] | 0.12 | 0.22 | 0.62 | 0.36 | < 2.5 | 0.25 | 0.36 | 0.21 | 0.15
